Test results: patent US12606526B2, “Substituted salicylamide compounds and use thereof” (HELIOS HUAMING BIOPHARMA CO., LTD., priority 2021, dated 2026)

Target: PAD4 (Homo sapiens, UniProt Q9UM07)
Assay: PAD4 Inhibition Assay (citrulline formation from BAEE)
Assay type: biochemical
Conditions: PAD4 75 nM, 60-minute preincubation at 37° C., substrate BAEE, 90 minutes
Protocol: PAD4 was diluted to 75 nM in Assay Buffer (50 mM Tris-HCl, 2 mM CaCl2, 2 mM DTT, 1 mM PMSF in H2O) and added to wells with various concentrations of compound or DMSO vehicle in Eppendorf tubes (final volume was 100 μL). Following a 60-minute preincubation at 37° C., the reaction was initiated by the addition of 10 μL substrate (22 mM BAEE in H2O) at 37° C. The reaction was stopped after 90 minutes by the addition of 25 μL HClO4 (5 M), 125 μL Reagent A (10 g/L diacetyl monoxime and 15 g/L NaCl in H2O) and 250 μL Reagent B (10 mg/mL antipyrine and 1.5 mg/mL FeCl3 diluted in detection buffer containing 25% H2SO4, 25% H3PO4 and 50% H2O) in sequence. This assay was quenched in an ice-bath for 5 minutes after boiling for 30 minutes. The citrulline formation was measured in […] (λ=465 nm) on microplate reader and the IC50 was calculated by GraphPad Prism 5.

Sequence of PAD4 (Q9UM07 whole entry): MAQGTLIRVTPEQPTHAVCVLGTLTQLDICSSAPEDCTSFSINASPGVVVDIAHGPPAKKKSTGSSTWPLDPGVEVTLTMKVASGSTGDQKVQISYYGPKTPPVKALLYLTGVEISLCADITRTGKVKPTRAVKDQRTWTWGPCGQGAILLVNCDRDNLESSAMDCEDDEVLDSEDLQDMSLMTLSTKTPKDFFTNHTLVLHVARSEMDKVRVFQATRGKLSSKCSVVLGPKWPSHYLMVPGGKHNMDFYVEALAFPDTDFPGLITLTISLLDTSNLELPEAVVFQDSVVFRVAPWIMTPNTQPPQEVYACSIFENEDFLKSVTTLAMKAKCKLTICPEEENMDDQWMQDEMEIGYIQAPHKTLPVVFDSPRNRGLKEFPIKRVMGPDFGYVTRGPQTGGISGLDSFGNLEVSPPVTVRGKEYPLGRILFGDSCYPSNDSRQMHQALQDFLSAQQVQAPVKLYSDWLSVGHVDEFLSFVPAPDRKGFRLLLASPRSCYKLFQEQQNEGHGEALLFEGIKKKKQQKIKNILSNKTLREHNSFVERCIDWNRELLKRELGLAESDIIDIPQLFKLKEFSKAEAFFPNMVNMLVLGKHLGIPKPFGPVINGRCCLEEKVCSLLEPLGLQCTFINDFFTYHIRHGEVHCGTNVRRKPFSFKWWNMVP

Row | Structure (SMILES) | IC50
1 | COc1ccccc1CNC(=O)[C@H](CCCNC(=N)CF)NC(=O)c1cc(-c2ccccc2)ccc1OC [EX-13, (S)-N-(5-(2-Fluoroacetimidamido)-1-((2-methoxybenzyl)amino)-1-oxopentan-2-yl)-4-methoxy-[1,1′-biphenyl]-3-carboxamide] | < 500 nM
2 | COc1c(C(=O)N[C@@H](CCCNC(=N)CF)C(=O)NCc2ccccc2)ccc2cc(N(C)C)ccc12 [EX-23, (S)-N-(1-(Benzylamino)-5-(2-fluoroacetimidamido)-1-oxopentan-2-yl)-6-(dimethylamino)-1-methoxy-2-naphthamide] | < 500 nM
3 | COc1cc2c(OC)cccc2cc1C(=O)N[C@@H](CCCNC(=N)CF)C(=O)NCc1cccc(Cl)c1 [EX-20, (S)-N-(1-((3-Chlorobenzyl)amino)-5-(2-fluoroacetimidamido)-1-oxopentan-2-yl)-3,5-dimethoxy-2-naphthamide] | < 500 nM
4 | COc1cccc(OC)c1C(=O)N[C@@H](CCCNC(=N)CF)C(=O)NCc1ccc(Cl)cc1 [EX-3, (S)-N-(1-((4-Chlorobenzyl)amino)-5-(2-fluoroacetimidamido)-1-oxopentan-2-yl)-2,6-dimethoxybenzamide] | < 500 nM
5 | COc1cccc(Cl)c1C(=O)N[C@@H](CCCNC(=N)CF)C(=O)NCc1ccc(Cl)cc1 [EX-4, (S)-2-Chloro-N-(1-((4-chlorobenzyl)amino)-5-(2-fluoroacetimidamido)-1-oxopentan-2-yl)-6-methoxybenzamide] | 500 to 10000 nM
6 | COc1ccc(-c2cccc(C)c2)cc1C(=O)N[C@@H](CCCNC(=N)CF)C(=O)NCc1ccccc1 [EX-12, (S)-N-(1-(Benzylamino)-5-(2-fluoroacetimidamido)-1-oxopentan-2-yl)-4-methoxy-3′-methyl-[1,1′-biphenyl]-3-carboxamide] | < 500 nM
7 | COc1ccccc1C(=O)N[C@@H](CCCNC(=N)CF)C(=O)NCc1ccc(Cl)cc1 [EX-5, (S)-N-(1-((4-Chlorobenzyl)amino)-5-(2-fluoroacetimidamido)-1-oxopentan-2-yl)-2-methoxybenzamide] | 500 to 10000 nM
8 | COc1ccc(Cl)cc1C(=O)N[C@@H](CCCNC(=N)CF)C(=O)NCc1ccccc1Cl [EX-15, (S)-5-Chloro-N-(1-((2-chlorobenzyl)amino)-5-(2-fluoroacetimidamido)-1-oxopentan-2-yl)-2-methoxybenzamide] | < 500 nM
9 | COc1cc2c(OC)cccc2cc1C(=O)N[C@@H](CCCNC(=N)CF)C(=O)NCc1cccc(NC(=O)CCCNC(=O)CCCC[C@@H]2SC[C@@H]3NC(=O)N[C@@H]32)c1 [EX-24] | < 500 nM
10 | COc1ccc(-c2ccccc2)cc1C(=O)N[C@@H](CCCNC(=N)CF)C(=O)NCc1ccccn1 [EX-10, (S)-N-(5-(2-Fluoroacetimidamido)-1-oxo-1-((pyridin-2-ylmethyl)amino)pentan-2-yl)-4-methoxy-[1,1′-biphenyl]-3-carboxamide] | < 500 nM
11 | COc1cc2c(OC)cccc2cc1C(=O)N[C@@H](CCCNC(=N)CF)C(=O)NCc1cccc(F)c1 [EX-21, (S)-N-(5-(2-Fluoroacetimidamido)-1-((3-fluorobenzyl)amino)-1-oxopentan-2-yl)-3,5-dimethoxy-2-naphthamide] | < 500 nM
12 | COc1ccc(Cl)cc1C(=O)N[C@@H](CCCNC(=N)CF)C(=O)NCc1ccc(Cl)cc1 [EX-6, (S)-5-Chloro-N-(1-((4-chlorobenzyl)amino)-5-(2-fluoroacetimidamido)-1-oxopentan-2-yl)-2-methoxybenzamide] | < 500 nM
13 | COc1cc2c(OC)cccc2cc1C(=O)N[C@@H](CCCNC(=N)CF)C(=O)NCc1ccc(Cl)cc1 [EX-19, (S)-N-(1-((4-Chlorobenzyl)amino)-5-(2-fluoroacetimidamido)-1-oxopentan-2-yl)-3,5-dimethoxy-2-naphthamide] | < 500 nM
14 | COc1cc2ccccc2cc1C(=O)N[C@@H](CCCNC(=N)CF)C(=O)NCc1ccccc1 [EX-2, (S)-N-(1-(Benzylamino)-5-(2-fluoroacetimidamido)-1-oxopentan-2-yl)-3-methoxy-2-naphthamide] | < 500 nM
15 | COc1cc2c(OC)cccc2cc1C(=O)N[C@@H](CCCNC(=N)CF)C(=O)NCc1ccc(F)cc1 [EX-22, (S)-N-(5-(2-Fluoroacetimidamido)-1-((4-fluorobenzyl)amino)-1-oxopentan-2-yl)-3,5-dimethoxy-2-naphthamide] | < 500 nM
16 | COc1ccc(Cl)cc1C(=O)N[C@@H](CCCNC(=N)CF)C(=O)NCc1cccc(Cl)c1 [EX-14, (S)-5-Chloro-N-(1-((3-chlorobenzyl)amino)-5-(2-fluoroacetimidamido)-1-oxopentan-2-yl)-2-methoxybenzamide] | < 500 nM
17 | COc1ccc(-c2cccc(Cl)c2)cc1C(=O)N[C@@H](CCCNC(=N)CF)C(=O)NCc1ccccc1 [EX-11, (S)-N-(1-(Benzylamino)-5-(2-fluoroacetimidamido)-1-oxopentan-2-yl)-3′-chloro-4-methoxy-[1,1′-biphenyl]-3-carboxamide] | 500 to 10000 nM
18 | COc1ccc(-c2ccccc2)cc1C(=O)N[C@@H](CCCNC(=N)CF)C(=O)NCc1cccc(C)c1 [EX-8, (S)-N-(5-(2-Fluoroacetimidamido)-1-((3-methylbenzyl)amino)-1-oxopentan-2-yl)-4-methoxy-[1,1′-biphenyl]-3-carboxamide] | 500 to 10000 nM
19 | COc1ccc(-c2ccccc2)cc1C(=O)N[C@@H](CCCNC(=N)CF)C(=O)NCc1cccc(Cl)c1 [EX-9, (S)-N-(1-((3-Chlorobenzyl)amino)-5-(2-fluoroacetimidamido)-1-oxopentan-2-yl)-4-methoxy-[1,1′-biphenyl]-3-carboxamide] | 500 to 10000 nM
20 | COc1cc2c(OC)cccc2cc1C(=O)N[C@@H](CCCNC(=N)CF)C(=O)NCc1ccccc1 [EX-1, (S)-N-(1-(benzylamino)-5-(2-fluoroacetimidamido)-1-oxopentan-2-yl)-3,5-dimethoxy-2-naphthamide] | < 500 nM
21 | COc1ccc(CNC(=O)[C@H](CCCNC(=N)CF)NC(=O)c2cc(Cl)ccc2OC)cc1 [EX-17, (S)-5-Chloro-N-(5-(2-fluoroacetimidamido)-1-((4-methoxybenzyl)amino)-1-oxopentan-2-yl)-2-methoxybenzamide] | < 500 nM
22 | COc1ccc(-c2ccccc2)cc1C(=O)N[C@@H](CCCNC(=N)CF)C(=O)NCc1ccccc1 [EX-7, (S)-N-(1-(Benzylamino)-5-(2-fluoroacetimidamido)-1-oxopentan-2-yl)-4-methoxy-[1,1′-biphenyl]-3-carboxamide] | < 500 nM
23 | COc1ccc(Cl)cc1C(=O)N[C@@H](CCCNC(=N)CF)C(=O)NCc1ccccn1 [EX-18, (S)-5-Chloro-N-(5-(2-fluoroacetimidamido)-1-oxo-1-((pyridin-2-ylmethyl)amino)pentan-2-yl)-2-methoxybenzamide] | < 500 nM
24 | COc1ccc(Cl)cc1C(=O)N[C@@H](CCCNC(=N)CF)C(=O)NCc1ccc(C)cc1 [EX-16, (S)-5-Chloro-N-(5-(2-fluoroacetimidamido)-1-((4-methylbenzyl)amino)-1-oxopentan-2-yl)-2-methoxybenzamide] | < 500 nM
